One may read the IC50 as the concentration that gives 50% inhibition.

The target of this test is human HPK1 (MAP4K1) (Homo sapiens (Human), UniProt Q92918). The experiment in a line: HPK1 IC50 Assay (TR-FRET biochemical kinase assay, STK S1 peptide substrate). To be noted: recombinant human HPK1 kinase domain 0.15 nM, 10 μM ATP, 1 μM STK S1 peptide; geometric mean. In outline: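 Pre-activated recombinant kinase domain (insect cells; 0.15 nM) pre-incubated with compounds for 15 min, then 10 μM ATP and 1 μM STK S1 peptide added for 3 h at 25 °C in BES pH 7.0. Phosphorylation read by HTRF (665/620 nm). IC50 from four-parameter fits normalized to staurosporine/DMSO controls, geometric mean of repeats.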
human HPK1 (MAP4K1), sequence (Q92918 17-274): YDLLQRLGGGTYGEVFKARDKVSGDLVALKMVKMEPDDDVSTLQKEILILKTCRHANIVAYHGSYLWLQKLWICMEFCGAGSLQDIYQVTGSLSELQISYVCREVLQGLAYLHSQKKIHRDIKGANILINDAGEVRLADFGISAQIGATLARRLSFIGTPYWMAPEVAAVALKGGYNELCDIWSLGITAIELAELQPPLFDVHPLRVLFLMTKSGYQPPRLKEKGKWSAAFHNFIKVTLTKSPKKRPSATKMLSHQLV
Regarding `CO[C@H]1C[C@@H](C(=O)N2CCC3(CC2)C(=O)N([C@H]2C[C@@H](N4CCC(C)(C)C4)C2)c2cc(-c4cc5ncn(C(C)C)c5c(Nc5ccncc5F)n4)ccc23)C1` [Example 156], the IC50 worked out at 0.2 nM. With `CC(C)n1cnc2cc(-c3ccc4c(c3)N([C@H]3C[C@@H](N5CCC(C)(C)C5)C3)C(=O)C43CCN(C(=O)c4cnco4)CC3)nc(Nc3ccncc3F)c21` [Example 158], the IC50 stood at 0.4 nM. To `CC(C)n1cnc2cc(-c3ccc4c(c3)N([C@H]3C[C@@H](N5CCC(C)(C)C5)C3)C(=O)C43CCN(C(=O)c4ncco4)CC3)nc(Nc3ccncc3F)c21` [Example 159] belongs 0.4 nM; to `CC(C)n1cnc2cc(-c3ccc4c(c3)N([C@H]3C[C@@H](N5CCC(C)(C)C5)C3)C(=O)C43CCN(C(=O)c4ncon4)CC3)nc(Nc3ccncc3F)c21` [Example 160], 0.4 nM; to `CC(C)n1cnc2cc(-c3ccc4c(c3)N([C@H]3C[C@@H](N5CCC(C)(C)C5)C3)C(=O)C43CCN(C(=O)c4cnnn4C)CC3)nc(Nc3ccncc3F)c21` [Example 161], 0.4 nM. As for `CC(C)n1cnc2cc(-c3ccc4c(c3)N([C@H]3C[C@@H](N5CCC(C)(C)C5)C3)C(=O)C43CCN(C(=O)c4nccs4)CC3)nc(Nc3ccncc3F)c21` [Example 162], the figure is 0.1 nM. As to `CC(C)n1cnc2cc(-c3ccc4c(c3)N([C@H]3C[C@@H](N5CCC(C)(C)C5)C3)C(=O)C43CCN(C(=O)C(C)(C)CO)CC3)nc(Nc3ccc(F)nc3F)c21` [Example 164], the IC50 worked out at 0.08 nM. Consider `CC(C)n1cnc2cc(-c3ccc4c(c3)N([C@H]3C[C@@H](N5CCC(C)(C)C5)C3)C(=O)C43CCN(C(=O)C4(C)COC4)CC3)nc(Nc3ccc(F)nc3F)c21` [Example 165], for which the IC50 was found to be 0.06 nM. As for `CC(=O)N1CCC2(CC1)C(=O)N([C@H]1C[C@@H](N3CC4CCC(C4)C3)C1)c1cc(-c3cc4ncn(C(C)C)c4c(Nc4cc(C)ncc4F)n3)ccc12` [Example 166], the figure is 0.1 nM; as for `CCC(=O)N1CCC2(CC1)C(=O)N([C@H]1C[C@@H](N3CCCCC3)C1)c1cc(-c3cc4ncn(C(C)C)c4c(Nc4ccncc4F)n3)ccc12` [Example 167, 6-(4-((3-fluoropyridin-4-yl)amino)-3-isopropyl-3H-imidazo[4,5-c]pyridin-6-yl)-1-((1s,3s)-3-(piperidin-1-yl)cyclobutyl)-1′-propionylspiro[indoline-3,4′-piperidin]-2-one], 0.4 nM.

For `CCC(=O)N1CCC2(CC1)C(=O)N([C@H]1C[C@@H](N3CCCCC3)C1)c1cc(-c3cc4ncn(CC)c4c(Nc4ccncc4F)n3)ccc12` [Example 168], the IC50 was found to be 2.6 nM. On to `CCn1cnc2cc(-c3ccc4c(c3)N([C@H]3C[C@@H](N5CCCCC5)C3)C(=O)C43CCN(C(=O)C(C)(C)C)CC3)nc(Nc3ccncc3F)c21` [Example 169], for which the IC50 is 0.8 nM. Consider `CC(C)n1cnc2cc(-c3ccc4c(c3)N([C@H]3C[C@@H](N5CCCCC5)C3)C(=O)C43CCN(C(=O)C(C)(C)C)CC3)nc(Nc3ccncc3F)c21` [Example 170], for which the IC50 turned out to be 0.3 nM. For the molecule `CC(C)C(=O)N1CCC2(CC1)C(=O)N([C@H]1C[C@@H](N3CCCCC3)C1)c1cc(-c3cc4ncn(C(C)C)c4c(Nc4ccncc4F)n3)ccc12` [Example 171], the IC50 stood at 0.5 nM. `CC(=O)N1CCC2(CC1)C(=O)N([C@H]1C[C@@H](N3C[C@H]4CC[C@H]4C3)C1)c1cc(-c3cc4ncn(C(C)C)c4c(Nc4ccncc4F)n3)ccc12` [Example 172]: the IC50 is 0.1 nM.

As to `CC(=O)N1CCC2(CC1)C(=O)N([C@H]1C[C@@H](N3CCC(C)(C)C3)C1)c1cc(-c3cc4ncn(C(C)C)c4c(Nc4cc(C)ncc4F)n3)ccc12` [Example 173], the IC50 was 0.4 nM. To `CC(C)n1cnc2cc(-c3ccc4c(c3)N([C@H]3C[C@@H](N5CCCCC5)C3)C(=O)C43CCN(C4COC4)CC3)nc(Nc3ccncc3F)c21` [Example 174, 6-(4-((3-fluoropyridin-4-yl)amino)-3-isopropyl-3H-imidazo[4,5-c]pyridin-6-yl)-1′-(oxetan-3-yl)-1-((1s,3s)-3-(piperidin-1-yl)cyclobutyl)spiro[indoline-3,4′-piperidin]-2-one] belongs 0.5 nM. To `CCn1cnc2cc(-c3ccc4c(c3)N([C@H]3C[C@@H](N5CCCCC5)C3)C(=O)C43CCN(C4COC4)CC3)nc(Nc3ccncc3F)c21` [Example 175] belongs 0.8 nM; to `CC(C)n1cnc2cc(-c3ccc4c(c3)N([C@H]3C[C@@H](N5CC(C)(C)C5)C3)C(=O)C43CCN(C4COC4)CC3)nc(Nc3ccncc3F)c21` [Example 176], 0.8 nM; to `CC(=O)N1CCC2(CC1)C(=O)N(C1CC(N3CCCC4(CC4)C3)C1)c1cc(-c3cc4ncn(C(C)C)c4c(Nc4ccncc4F)n3)ccc12` (stereo not shown) [Example 177, 1-((1s,3s)-3-(5-azaspiro[2.5]octan-5-yl)cyclobutyl)-1′-acetyl-6-(4-((3-fluoropyridin-4-yl)amino)-3-isopropyl-3H-imidazo[4,5-c]pyridin-6-yl)spiro[indoline-3,4′-piperidin]-2-one], 0.3 nM. As for `CC(=O)N1CCC2(CC1)C(=O)N([C@H]1C[C@@H](N3CCC4(CC4)C3)C1)c1cc(-c3cc4ncn(C(C)C)c4c(Nc4ccncc4F)n3)ccc12` [Example 178], the figure is 0.8 nM.

On to `COC(C)(C)CN(C)[C@H]1C[C@@H](N2C(=O)C3(CCN(C(C)=O)CC3)c3ccc(-c4cc5ncn(C(C)C)c5c(Nc5ccncc5F)n4)cc32)C1` [Example 179], for which the IC50 is 4.5 nM. To `CC(=O)N1CCC2(CC1)C(=O)N([C@H]1C[C@@H](N3CC4CC4C3)C1)c1cc(-c3cc4ncn(C(C)C)c4c(Nc4ccncc4F)n3)ccc12` (stereo partly shown) [Example 180] belongs 1.3 nM. To `CC(=O)N1CCC2(CC1)C(=O)N([C@H]1C[C@@H](N3CC4CCC(C4)C3)C1)c1cc(-c3cc4ncn(C(C)C)c4c(Nc4ccncc4F)n3)ccc12` [Example 181] belongs 0.1 nM. To `CC(=O)N1CCC2(CC1)C(=O)N([C@H]1C[C@@H](N3CCCC4(CCC4)C3)C1)c1cc(-c3cc4ncn(C(C)C)c4c(Nc4ccncc4F)n3)ccc12` [Example 182] belongs 0.3 nM; to `CC(=O)N1CCC2(CC1)C(=O)N([C@H]1C[C@@H](N3CCC4CC4C3)C1)c1cc(-c3cc4ncn(C(C)C)c4c(Nc4ccncc4F)n3)ccc12` (stereo partly shown) [Example 183], 0.4 nM; to `CC(=O)N1CCC2(CC1)C(=O)N([C@H]1C[C@@H](N3CCCC[C@@H]3C)C1)c1cc(-c3cc4ncn(C(C)C)c4c(Nc4ccncc4F)n3)ccc12` [Example 184], 0.7 nM. As for `CC(=O)N1CCC2(CC1)C(=O)N([C@H]1C[C@@H](N3CCCCCC3)C1)c1cc(-c3cc4ncn(C(C)C)c4c(Nc4ccncc4F)n3)ccc12` [Example 185], the IC50 stood at 0.1 nM. For the molecule `CC(=O)N1CCC2(CC1)C(=O)N([C@H]1C[C@@H](N3C4CCCC3CC4)C1)c1cc(-c3cc4ncn(C(C)C)c4c(Nc4ccncc4F)n3)ccc12` [Example 186], the IC50 came out at 0.3 nM. To `CC(=O)N1CCC2(CC1)C(=O)N([C@H]1C[C@@H](N3CC4CC4(C)C3)C1)c1cc(-c3cc4ncn(C(C)C)c4c(Nc4ccncc4F)n3)ccc12` (stereo partly shown) [Example 187] belongs 0.2 nM; to `CC(C)n1cnc2cc(-c3ccc4c(c3)N([C@H]3C[C@@H](N5CCCC5)C3)C(=O)C4(C)C)nc(Nc3ccncc3F)c21` [Example 188], 3.2 nM.

For the origin of these results see patent US11071730B2, “Substituted 6-azabenzimidazole compounds” (Gilead Sciences, Inc., priority 2018, dated 2021).
